From patent US10787432B2, “N-[(pyridyloxy)propanyl]benzamides” (Boehringer Ingelheim International GmbH, priority 2016, dated 2020)
Like-named read-outs stand apart in the source and are kept apart here.

Columns and labels:
human Orexin 1 receptor = target: T1, human Orexin 1 receptor (Homo sapiens, UniProt O43613); assay: Assay A: In vitro testing of OX1R potency: OX1R IP1 (HTRF, CHO-K1/hOX1 cells, Orexin A as agonist); assay type: cell-based; settings: for Kb: read-out: OX1R Kb (Orexin A concentration used)
T1 construct: stably expressing the full-length human Orexin 1 receptor; expressed in transfected cells; host or cells: CHO-K1 (CHO-K1/hOX1), co-expressing aequorin
T1 sequence (O43613 1-425): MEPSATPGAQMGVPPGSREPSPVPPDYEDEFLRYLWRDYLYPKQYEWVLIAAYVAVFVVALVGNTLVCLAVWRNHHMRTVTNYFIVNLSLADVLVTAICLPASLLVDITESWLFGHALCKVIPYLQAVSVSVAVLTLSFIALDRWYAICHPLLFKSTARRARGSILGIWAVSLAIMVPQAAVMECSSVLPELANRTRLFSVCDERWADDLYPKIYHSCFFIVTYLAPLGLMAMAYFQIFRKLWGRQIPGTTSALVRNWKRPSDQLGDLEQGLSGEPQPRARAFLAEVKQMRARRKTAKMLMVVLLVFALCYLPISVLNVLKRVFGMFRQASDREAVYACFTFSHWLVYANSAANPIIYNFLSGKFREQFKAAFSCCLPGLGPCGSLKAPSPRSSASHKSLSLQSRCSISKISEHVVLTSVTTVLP

human orexin 2 receptor = target: T2, human orexin 2 receptor (Homo sapiens, UniProt O43614); assay: Assay B: In vitro testing of OX2R potency: OX2R IP1 (HTRF, CHO-K1/hOX2 cells, Orexin A as agonist); assay type: cell-based; settings: Orexin A 0.5 nM
T2 construct: stably expressing the full-length human orexin 2 receptor; expressed in transfected cells; host or cells: CHO-K1 (CHO-K1/hOX2), co-expressing aequorin
T2 sequence (O43614 1-444): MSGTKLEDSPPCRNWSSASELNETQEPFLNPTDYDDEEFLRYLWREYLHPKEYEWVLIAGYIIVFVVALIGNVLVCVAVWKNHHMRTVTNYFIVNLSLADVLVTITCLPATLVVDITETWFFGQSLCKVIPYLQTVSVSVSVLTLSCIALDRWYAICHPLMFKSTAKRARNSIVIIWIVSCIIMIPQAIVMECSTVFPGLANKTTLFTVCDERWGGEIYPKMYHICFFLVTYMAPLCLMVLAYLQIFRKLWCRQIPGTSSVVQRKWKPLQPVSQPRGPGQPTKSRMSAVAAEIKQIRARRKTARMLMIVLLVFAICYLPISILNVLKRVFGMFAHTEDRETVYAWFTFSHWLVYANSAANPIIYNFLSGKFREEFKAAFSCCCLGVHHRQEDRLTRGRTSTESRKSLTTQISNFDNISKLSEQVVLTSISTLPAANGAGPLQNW
From the text: Activation of the orexin receptors expressed in cell lines results in an increase in intracellular IP3 concentration. IP1, a downstream metabolite of IP3, accumulates in cells following receptor activation and is stable in the presence of LiCl. Using Homogeneous Time-Resolved Fluorescence technology with Lumi4-Tb cryptate (commercially available from Cisbio Bioassay.) and a suitable fluorescence plate reader. […] Chem. Genomics 2009, 3, 22-32. This technique is used to characterize pharmacological modification of the orexin receptors.
B. In Vitro Testing of OX2R Potency: OX2R IP1
IP1 measurements are performed in CHO-K1 cells stably expressing the full-length human orexin 2 receptor and the aequorin photoprotein. Cells are cultivated in Ham's nutrient mixture F12 medium with 10% fetal calf serum, in a 37° C., 95% humidity and 5% CO2 incubator. The CHO-K1/hOX2 cell mass is expanded to larger cell numbers. The cells are obtained as frozen cells in cryo-vials and stored until use at −150° C. The viability of the cells after thawing is >90%. In preparation for the assay, 24 hours before the assay, the cells are thawed at 37° C. and immediately diluted with cell culture medium. After centrifugation, the cell pellet is resuspended in medium and then distributed into the assay plates with a density of 5000 cells/25 μL per well. The plates are incubated for one hour at room temperature to reduce edge effects before they are incubated for 24 hours at 37° C./5% CO2. Compounds are prepared by a 8-point serial dilution in DMSO and a final dilution step into assay buffer (HBSS with 20 mM HEPES, 0.1% BSA and 50 mM LiCl, pH 7.4) to ensure a final DMSO concentration of 1% in the assay.
On the day of the assay, cells in the plate are washed twice with 60 μL assay buffer (20 μL buffer remained in the wells after washing), followed by adding 5 μL per well of compounds diluted in assay buffer. After 15 minutes of incubation at room temperature 5 μL per well of Orexin A peptide (final concentration: 0.5 nM) dissolved in assay buffer is added to the assay plate. The assay plate is incubated for 60 minutes at 37° C. Then 5 μL per well of Anti-IP1-Cryptate Tb solution and 5 μL per well of IP1-d2 dilution are added to all well of the plate and the plate is incubated for a further 60 minutes light protected at room temperature. The emission at 615 nm and 665 nm (Excitation wavelength: 320 nm) are measured using an EnVision reader (PerkinElmer). The ratio between the emission at 665 nm and 615 is calculated by the reader.
8-point four parametric non-linear curve fitting and determination of IC50 values and Hill slopes is performed using a regular analysis software e.g. AssayExplorer (Accelrys). In order to establish an agonist concentration independent parameter, Kb values are calculated using the following equation: IC50/((2+(A/EC50)n)^1/n−1) (with A=concentration agonist, EC50=EC50 agonist, n=Hill slope agonist) (see P. Leff, I. G. Dougall, Trends Pharmacol. Sci. 1993, 14(4), 110-112).
Kb values from Assay A (OX1R) and Assay B (OX2R) can then provide a selectivity ratio which is independent of the agonist (Orexin A) concentration.

[1] = Assay C: Metabolic stability in human liver microsomes (Human MST); assay type: in vitro ADME; settings: pooled human liver microsomes, pH 7.6; human liver microsomes 1 mg/mL, compound 1 μM, 37° C., NADPH; read-out: Human MST t1/2
Method: C. Assessment of Metabolic Stability in Human Liver Microsomes (Human MST)
The metabolic stability of the compounds according to the invention may be investigated as follows:
The metabolic degradation of the test compound is assayed at 37° C. with pooled human liver microsomes. The final incubation volume of 100 μL per time point contains TRIS buffer pH 7.6 at room temperature (0.1 M), MgCl2 (5 mM), microsomal protein (1 mg/mL) and the test compound at a final concentration of 1 μM. Following a short pre-incubation period at 37° C., the reactions are initiated by addition of beta-nicotinamide adenine dinucleotide phosphate, reduced form (NADPH, 1 mM), and terminated by transferring an aliquot into solvent after different time points. After centrifugation (10000 g, 5 min), an aliquot of the supernatant is assayed by LC-MS/MS for the amount of parent compound. The half-life (t1/2) is determined by the slope of the semi-logarithmic plot of the concentration-time profile.

| SMILES | OX2R Kb/OX1R Kb (human Orexin 1 receptor; OX1R Kb at 0.5 nM Orexin A) | Kb (human Orexin 1 receptor; Orexin A 0.5 nM) [nM] | Kb (human orexin 2 receptor) [nM] | half-life at 1 μM [1] [min] | OX2R Kb/OX1R Kb (human Orexin 1 receptor; OX1R Kb at 50 nM Orexin A) | Kb (human Orexin 1 receptor; Orexin A 50 nM) [nM] | OX2R Kb/OX1R Kb (human Orexin 1 receptor; OX1R Kb at 0.5 nM and 50 nM Orexin A) | Kb (human Orexin 1 receptor; Orexin A 0.5 nM and 50 nM) [nM] |
| --- | --- | --- | --- | --- | --- | --- | --- | --- |
| CCN(C(=O)c1cc(F)ccc1-n1cccn1)[C@@H](C)COc1ncc(C(F)(F)F)cc1F [Example 124] | 278 | 3.8 | 1060 | 10 | – | – | – | – |
| CCN(C(=O)c1cccc(F)c1-c1ncccn1)[C@@H](C)COc1ccc(C(F)(F)F)cn1 [Example 97] | – | – | 20 | 100 | 800 | 0.025 | – | – |
| CCN(C(=O)c1cccc(C)c1-c1nnc(C)o1)[C@@H](C)COc1ccc(Cl)cn1 [Example 39] | 93 | 0.88 | 82 | 23 | 152 | 0.54 | – | – |
| CCN(C(=O)c1cccc(F)c1-n1nccn1)[C@@H](C)COc1ncc(C(F)(F)F)cc1Cl [Example 110] | – | – | 53 | 100 | 312 | 0.17 | – | – |
| CCN(C(=O)c1ccccc1-c1cnnc(C)c1)[C@@H](C)COc1ccc(C(F)(F)F)cn1 [Example 84] | 150 | 8.6 | 1290 | 11 | – | – | – | – |
| CCN(C(=O)c1cccc(F)c1-c1nnc(C)o1)[C@@H](C)COc1ccc(Cl)cn1 [Example 36] | 139 | 3.9 | 542 | 72 | – | – | – | – |
| CCN(C(=O)c1cccc(Cl)c1-n1nccn1)[C@@H](C)COc1ccc(C(F)(F)F)cn1 [Example 90] | – | – | 13 | 44 | 520 | 0.025 | – | – |
| CCN(C(=O)c1cc(F)c(F)cc1-n1nccn1)[C@@H](C)COc1ccc(C(F)(F)F)cn1 [Example 4] | 276 | 0.5 | 138 | 61 | 187 | 0.74 | – | – |
| CCN(C(=O)c1cccc(F)c1-c1nnc(C)o1)[C@@H](C)COc1ncc(C(F)(F)F)cc1F [Example 61] | 452 | 3.27 | 1480 | 26 | – | – | – | – |
| CCN(C(=O)c1ccc(F)cc1-n1nccn1)[C@@H](C)COc1ncc(C(F)(F)F)cc1F [Example 48] | 156 | 1.31 | 205 | 31 | 220 | 0.93 | – | – |
| CCN(C(=O)c1cccc(F)c1-c1ncccn1)[C@@H](C)COc1ccc(OC(F)(F)F)cn1 [Example 130] | – | – | 20 | > 130 | 133 | 0.15 | – | – |
| CCN(C(=O)c1ccc(Cl)cc1-n1nccn1)[C@@H](C)COc1ncc(C(F)(F)F)cc1F [Example 73] | – | – | 235 | 12 | 734 | 0.32 | – | – |
| CCN(C(=O)c1ccccc1-c1ccc(=O)n(C)c1)[C@@H](C)COc1ccc(C(F)(F)F)cn1 [Example 96] | 217 | 7.4 | 1610 | 34 | – | – | – | – |
| CCN(C(=O)c1cccc(F)c1-c1ncccn1)[C@@H](C)COc1ccc(Br)cn1 [Example 125] | – | – | 27 | > 130 | 355 | 0.076 | – | – |
| CCN(C(=O)c1ccc(F)cc1-n1nccn1)[C@@H](C)COc1ccc(Cl)cn1 [Example 28] | – | – | 86 | 39 | – | – | 51 | 1.7 |
| CCN(C(=O)c1ccc(Cl)cc1-n1nccn1)[C@@H](C)COc1ccc(Cl)cn1 [Example 45] | – | – | 21 | 18 | 59 | 0.354 | – | – |
| CCN(C(=O)c1ccccc1-c1ccn(C)n1)[C@@H](C)COc1ccc(C(F)(F)F)cn1 [Example 74] | 123 | 0.39 | 48 | 14 | 229 | 0.21 | – | – |
| CCN(C(=O)c1cc(F)ccc1-n1nccn1)[C@@H](C)COc1ccc(Cl)cn1 [Example 29] | 71 | 1 | 71 | 55 | 81 | 0.88 | – | – |
| CCN(C(=O)c1ccccc1-n1nccn1)[C@@H](C)COc1ccc(Cl)cn1 [Example 46] | – | – | 37 | 35 | 56 | 0.66 | – | – |
| CCN(C(=O)c1ccc(F)cc1-c1ncccn1)[C@@H](C)COc1ccc(C(F)(F)F)cn1 [Example 108] | – | – | 45 | 50 | 409 | 0.11 | – | – |
| CCN(C(=O)c1ccc(F)c(F)c1-n1nccn1)[C@@H](C)COc1ncc(C(F)(F)F)cc1F [Example 50] | – | – | 283 | 46 | 410 | 0.69 | – | – |
| CCN(C(=O)c1cc(F)cc(F)c1-n1nccn1)[C@@H](C)COc1ccc(OC(F)(F)F)cn1 [Example 126] | 71 | 0.58 | 41 | 62 | 66 | 0.62 | – | – |
| CCN(C(=O)c1cc(F)ccc1-n1nccn1)[C@@H](C)COc1ncc(C(F)(F)F)cc1F [Example 51] | 259 | 0.73 | 189 | 36 | 430 | 0.44 | – | – |
